The target in assay [1] is Integrase (Human immunodeficiency virus 1). Kind of assay: Inhibitory concentration against human immuno deficiency virus type 1 integrase (Strand Transfer).
The target is the same in assay [2]. Put plainly: Inhibitory concentration against human immuno deficiency virus type 1 integrase (3'-processing).

For 24 molecules, IC50 results are on record in BindingDB's records for doi:10.1021/jm0496077 (University of Southern California, 2005).

Structures are written as SMILES.

For the molecule `COc1ccc(/C=C2\SC(=S)N(CCC(=O)Nc3cccc(C(=O)O)c3)C2=O)cc1`, the IC50 in assay [1] and in assay [2] was > 100 µM throughout.

As for `COc1cc(/C=C2/SC(=S)N(CCC(=O)Nc3ccc(C(=O)O)cc3)C2=O)cc(OC)c1OC`, the IC50 was 85 µM in assay [1] and 97 µM in assay [2].

As for `CCOc1ccc(/C=C2\SC(=S)N(CCC(=O)Nc3cccc(C(=O)O)c3)C2=O)cc1`, the 50% inhibitory concentration (IC50) in assay [1] was > 100 µM; in assay [2], 93 µM.

As for `COc1cc(C(=O)Nc2ccc(O)c(C(=O)O)c2)cc(OC)c1OC` [2-Hydroxy-5-(3,4,5-trimethoxy-benzoylamino)-benzoic acid], the IC50 in assay [1] and in assay [2] was > 100 µM each time.

Turning to `O=C(CCN1C(=O)/C(=C/c2cccs2)SC1=S)Nc1ccc(O)c(C(=O)O)c1` [2-Hydroxy-5-(3-{4-oxo-5-[1-thiophen-2-yl-meth-(Z)-ylidene]-2-thioxo-thiazolidin-3-yl}-propionylamino)-benzoic acid], the concentration for half-maximal inhibition (IC50) in assay [1] and in assay [2] was 38 µM each time.

Consider `CC(/C=C1\SC(=S)N(CCC(=O)Nc2ccc(O)c(C(=O)O)c2)C1=O)=C\c1ccccc1` [2-Hydroxy-5-(3-{5-[(E)-2-methyl-3-phenyl-prop-2-en-(Z)-ylidene]-4-oxo-2-thioxo-thiazolidin-3-yl}-propionylamino)-benzoic acid], for which the IC50 in assay [1] was 23 µM; in assay [2], 36 µM.

In the case of `O=C(CCCN1C(=O)/C(=C\c2cccs2)SC1=S)Nc1ccc(O)c(C(=O)O)c1` [2-Hydroxy-5-(4-{4-oxo-5-[1-thiophen-2-yl-meth-(Z)-ylidene]-2-thioxo-thiazolidin-3-yl}-butyrylamino)-benzoic acid], the figures for the IC50 in assay [1] and in assay [2] were 35 µM and 44 µM, respectively.

Consider `O=C(CN1C(=O)/C(=C/c2ccccc2Cl)SC1=S)Nc1ccc([N+](=O)[O-])cc1O` [2-{5-[1-(2-Chloro-phenyl)-meth-(Z)-ylidene]-4-oxo-2-thioxo-thiazolidin-3-yl}-N-(2-hydroxy-4-nitro-phenyl)-acetamide], for which the IC50 in assay [1] and in assay [2] was > 100 µM throughout.

As to `O=C(CN1C(=O)/C(=C/c2ccccc2Cl)SC1=S)Nc1cc([N+](=O)[O-])ccc1O` [2-{5-[1-(2-Chloro-phenyl)-meth-(Z)-ylidene]-4-oxo-2-thioxo-thiazolidin-3-yl}-N-(2-hydroxy-5-nitro-phenyl)-acetamide], the results for the half-maximal inhibitory concentration (IC50) in assay [1] and in assay [2] were 18 µM and 20 µM, respectively.

Turning to `Cc1ccc(/C=C2/SC(=S)N(CC(=O)Nc3cccc(C(=O)O)c3)C2=O)cc1` [3-(2-{4-Oxo-2-thioxo-5-[1-p-tolyl-meth-(Z)-ylidene]-thiazolidin-3-yl}-acetylamino)-benzoic acid], the IC50 was > 100 µM in assay [1] and 98 µM in assay [2].

For `CCc1ccc(/C=C2/SC(=S)N(CC(=O)Nc3cccc(C(=O)O)c3)C2=O)cc1` [3-(2-{5-[1-(4-Ethyl-phenyl)-meth-(Z)-ylidene]-4-oxo-2-thioxo-thiazolidin-3-yl}-acetylamino)-benzoic acid], the half-maximal inhibitory concentration (IC50) in assay [1] and in assay [2] was > 100 µM in each case.

For `Cc1ccc(/C=C2\SC(=S)N(CCC(=O)Nc3cccc(C(=O)O)c3)C2=O)cc1` [3-(3-{4-Oxo-2-thioxo-5-[1-p-tolyl-meth-(Z)-ylidene]-thiazolidin-3-yl}-propionylamino)-benzoic acid], the concentration for half-maximal inhibition (IC50) in assay [1] is > 100 µM; in assay [2], 100 µM.

Take `O=C1/C(=C/c2c(NCCO)nc3ccccn3c2=O)SC(=S)N1Cc1ccco1` [3-[3-Furan-2-ylmethyl-4-oxo-2-thioxo-thiazolidin-(5E)-ylidenemethyl]-2-(2-hydroxy-ethylamino)-pyrido[1,2-a]pyrimidin-4-one]: the values for the IC50 in assay [1] and in assay [2] were 100 µM and > 100 µM, respectively.

For `Cc1ccc(/C=C2\SC(=S)N(CCC(=O)Nc3ccc(S(=O)(=O)Nc4nccs4)cc3)C2=O)cc1` [3-{4-Oxo-2-thioxo-5-[1-p-tolyl-meth-(Z)-ylidene]-thiazolidin-3-yl}-N-[4-(thiazol-2-ylsulfamoyl)-phenyl]-propionamide], the IC50 in assay [1] was determined as 44 µM; in assay [2], 83 µM.

Take `O=C(CCN1C(=O)/C(=C/c2ccccc2Cl)SC1=S)Nc1ccc([N+](=O)[O-])cc1` [3-{5-[1-(2-Chloro-phenyl)-meth-(Z)-ylidene]-4-oxo-2-thioxo-thiazolidin-3-yl}-N-(4-nitro-phenyl)-propionamide]: the IC50 in assay [1] and in assay [2] was > 100 µM throughout.

Take `CCOC(=O)N1CCN(C(=O)CCN2C(=O)/C(=C/c3ccc(OC)c(OC)c3)SC2=S)CC1` [4-(3-{5-[1-(3,4-Dimethoxy-phenyl)-meth-(Z)-ylidene]-4-oxo-2-thioxo-thiazolidin-3-yl}-propionyl)-piperazine-1-carboxylic acid ethyl ester]: the IC50 in assay [1] and in assay [2] was > 100 µM throughout.

Regarding `COc1ccc(/C=C2/SC(=S)N(CCC(=O)Nc3ccc(C(=O)O)c(O)c3)C2=O)cc1OC` [4-(3-{5-[1-(3,4-Dimethoxy-phenyl)-meth-(Z)-ylidene]-4-oxo-2-thioxo-thiazolidin-3-yl}-propionylamino)-2-hydroxy-benzoic acid], the figures for the IC50 in assay [1] and in assay [2] were 17 µM and 61 µM, respectively.

`O=C(CCN1C(=O)/C(=C/c2ccc3c(c2)OCO3)SC1=S)Nc1ccc(C(=O)O)c(O)c1` [4-(3-{5-[1-Benzo[1,3]dioxol-5-yl-meth-(Z)-ylidene]-4-oxo-2-thioxo-thiazolidin-3-yl}-propionylamino)-2-hydroxy-benzoic acid]: the figures for the half-maximal inhibitory concentration (IC50) in assay [1] and in assay [2] were 23 µM and 33 µM, respectively.

Consider `O=C(CN1C(=O)/C(=C2\SC(=S)N(CC(=O)Nc3ccc(C(=O)O)cc3)C2=O)SC1=S)Nc1ccc(C(=O)O)cc1` [4-{5-[3-(4-carboxyphenylcarbamoylmethyl)-4-oxo-2-thioxo-1,3-thiazolan-5-yliden]-4-oxo-2-thioxo-1,3-thiazolan-3-ylmethylcarboxamido}benzoic acid], for which the figures for the 50% inhibitory concentration (IC50) in assay [1] and in assay [2] were 75 µM and 59 µM, respectively.

With `O=C(NC(=S)Nc1ccc(O)c(C(=O)O)c1)c1ccccc1` [5-(3-Benzoyl-thioureido)-2-hydroxy-benzoic acid], the half-inhibitory concentration (IC50) in assay [1] and in assay [2] was > 100 µM each time.

On to `CCc1ccc(/C=C2\SC(=S)N(CCC(=O)Nc3ccc(O)c(C(=O)O)c3)C2=O)cc1` [5-(3-{5-[1-(4-Ethyl-phenyl)-meth-(Z)-ylidene]-4-oxo-2-thioxo-thiazolidin-3-yl}-propionylamino)-2-hydroxy-benzoic acid], for which the IC50 in assay [1] was 11 µM; in assay [2], 15 µM.

With `O=C(CCN1C(=O)/C(=C/c2ccc3c(c2)OCO3)SC1=S)Nc1ccc(O)c(C(=O)O)c1` [5-(3-{5-[1-Benzo[1,3]dioxol-5-yl-meth-(Z)-ylidene]-4-oxo-2-thioxo-thiazolidin-3-yl}-propionylamino)-2-hydroxy-benzoic acid], the IC50 was determined as 17 µM in assay [1] and 15 µM in assay [2].

As to `O=C1/C(=C/c2ccc(O)cc2O)SC(=S)N1c1ccccc1` [5-[1-(2,4-Dihydroxy-phenyl)-meth-(Z)-ylidene]-3-phenyl-2-thioxo-thiazolidin-4-one], the concentration for half-maximal inhibition (IC50) in assay [1] and in assay [2] was > 100 µM in each case.

Consider `O=C(O)c1ccc(S(=O)(=O)c2ccc3c(c2)C(=O)N(c2ccc(O)c(C(=O)O)c2)C3=O)cc1` [5-[5-(4-Carboxy-benzenesulfonyl)-1,3-dioxo-1,3-dihydro-isoindol-2-yl]-2-hydroxy-benzoic acid], for which the IC50 came out at 44 µM in assay [1] and 66 µM in assay [2].
